Measured values reported in ChEMBL document CHEMBL4627274, “Optimized plant compound with potent anti-biofilm activity across gram-negative species” (Bioorg Med Chem, 2020).
Active and inactive are the calls of the source. The rule behind the calls is not given here.

Tests used:
Pseudomonas aeruginosa [1] = assay: Inhibition of swarming motility of Pseudomonas aeruginosa HONKR at 16 ug/mL incubated for 16 to 20 hrs relative to control; assay type: functional
Escherichia coli [2] = assay: Inhibition of swarming motility of Escherichia coli PY31 at 16 ug/mL incubated for 16 to 20 hrs relative to control; assay type: functional
Escherichia coli [3] = assay: Antibiofilm activity against Escherichia coli UTI89 incubated for 2 days at 23 degC followed by 1 day incubation at RT; assay type: functional
Pseudomonas aeruginosa [4] = assay: Inhibition of swarming motility of Pseudomonas aeruginosa clinical isolates incubated for 16 to 20 hrs; assay type: functional
Escherichia coli [5] = assay: Inhibition of swarming motility of Escherichia coli clinical isolates incubated for 16 to 20 hrs; assay type: functional
Burkholderia cepacia = assay: Inhibition of swarming motility of Burkholderia cepacia clinical isolates incubated for 16 to 20 hrs; assay type: functional
Salmonella enterica = assay: Inhibition of swarming motility of Salmonella enterica clinical isolates incubated for 16 to 20 hrs; assay type: functional
Pseudomonas aeruginosa [6] = assay: Inhibition of swarming motility of Pseudomonas aeruginosa HONKR at 10 ug incubated for 18 to 24 hrs; assay type: functional, organism-based

Compound | inhibition at 16 µg/mL (Pseudomonas aeruginosa [1]) | inhibition at 16 µg/mL (Escherichia coli [2]) | MBIC50 (Escherichia coli [3]) | further results
CN1C[C@@H]2C[C@]3(C)[C@H]4CC=C5[C@@H]6CC(C)(C)CC[C@]6(C(=O)O)CC[C@@]5(C)[C@]4(C)CC[C@H]3C(C)(C)[C@H]2OC1=O | < 20% | < 20% | >=32 ug ml-1 | 
C[C@H]1[C@H](C)CC[C@]2(C(=O)O)CC[C@]3(C)C(=CC[C@@H]4[C@@]5(C)C[C@@H](O)[C@@H](O)C(C)(C)[C@@H]5CC[C@]43C)[C@H]12 [PYGENIC ACID A] | > 90% |  |  | 
C[C@H]1[C@H](C)CC[C@]2(C(=O)O)CC[C@]3(C)C(=CC[C@@H]4[C@@]5(C)C[C@@H](O)[C@@H](O)[C@](C)(CO)[C@@H]5CC[C@]43C)[C@H]12 | 90% |  |  | 
CC(C)(O/N=C(\C(=O)N[C@@H]1C(=O)N2C(C(=O)[O-])=C(C[n+]3ccccc3)CS[C@H]12)c1csc(N)n1)C(=O)O [CEFTAZIDIME] |  |  |  | INH (Pseudomonas aeruginosa [4]): 4 µg/mL; INH (Escherichia coli [5]): 0.25 µg/mL; INH (Burkholderia cepacia): >8 µg/mL; INH (Salmonella enterica): 0.5 µg/mL
CC1(C)CC[C@]2(C(=O)O)CC[C@]3(C)C(=CC[C@@H]4[C@@]5(C)C[C@@H](C(=O)NC6CC6)[C@H](O)C(C)(C)[C@@H]5CC[C@]43C)[C@@H]2C1 | < 20% | 70% | 4 µg/mL | 
CNC(=O)[C@@H]1C[C@]2(C)[C@H]3CC=C4[C@@H]5CC(C)(C)CC[C@]5(C(=O)O)CC[C@@]4(C)[C@]3(C)CC[C@H]2C(C)(C)[C@H]1O | < 20% | < 20% | 4 µg/mL | 
CC1(C)CC[C@]2(C(=O)O)CC[C@]3(C)C(=CC[C@@H]4[C@@]5(C)C[C@@H](C(=O)N6CCOCC6)[C@H](O)C(C)(C)[C@@H]5CC[C@]43C)[C@@H]2C1 | < 20% | < 20% | 4 µg/mL | 
CC1(C)CC[C@]2(C(=O)O)CC[C@]3(C)C(=CC[C@@H]4[C@@]5(C)Cc6cnc(N)nc6C(C)(C)[C@@H]5CC[C@]43C)[C@@H]2C1 | 80% | 90% | >=32 ug ml-1 | 
C[C@H]1[C@H](C)CC[C@]2(C(=O)O)CC[C@]3(C)C(=CC[C@@H]4[C@@]5(C)C[C@@H](O)[C@H](O)[C@@](C)(CO)[C@@H]5CC[C@]43C)[C@H]12 [ASIATIC ACID] | 70% |  |  | 
CC1(C)CC[C@]2(C(=O)O)CC[C@]3(C)C(=CC[C@@H]4[C@@]5(C)CC[C@H](O)C(C)(C)[C@@H]5CC[C@]43C)[C@@H]2C1 [OLEANOLIC_ACID] | > 90% | 80% | >=32 ug ml-1 | INH (Pseudomonas aeruginosa [4]): 8 µg/mL; INH (Escherichia coli [5]): 16 µg/mL; INH (Burkholderia cepacia): 0.5 µg/mL; INH (Salmonella enterica): >64 µg/mL
C=C(C)[C@@H]1CC[C@]2(C(=O)O)CC[C@]3(C)[C@H](CC[C@@H]4[C@@]5(C)CC[C@H](O)C(C)(C)[C@@H]5CC[C@]43C)[C@@H]12 [BETULINIC ACID] | 80% |  |  | 
CC1(C)CC[C@]2(C(=O)O)CC[C@]3(C)C(=CC[C@@H]4[C@@]5(C)C[C@@H](c6ncc[nH]6)[C@H](O)C(C)(C)[C@@H]5CC[C@]43C)[C@@H]2C1 | < 20% | > 90% | 16 µg/mL | 
CC[C@H]1OC(=O)[C@H](C)[C@@H](O[C@H]2C[C@@](C)(OC)[C@@H](O)[C@H](C)O2)[C@H](C)[C@@H](O[C@@H]2O[C@H](C)C[C@H](N(C)C)[C@H]2O)[C@](C)(O)C[C@@H](C)CN(C)[C@H](C)[C@@H](O)[C@]1(C)O [AZITHROMYCIN] |  |  |  | INH (Pseudomonas aeruginosa [4]): >16 µg/mL; INH (Burkholderia cepacia): >16 µg/mL; INH (Salmonella enterica): >16 µg/mL
CNC(=N)[C@@H]1C[C@]2(C)[C@H]3CC=C4[C@@H]5CC(C)(C)CC[C@]5(C(=O)O)CC[C@@]4(C)[C@]3(C)CC[C@H]2C(C)(C)[C@H]1O | < 20% | 30% | >=32 ug ml-1 | 
C[C@H]1[C@H](C)CC[C@]2(C(=O)O)CC[C@]3(C)C(=CC[C@@H]4[C@@]5(C)CC[C@H](O)C(C)(C)[C@@H]5CC[C@]43C)[C@H]12 [URSOLIC ACID] | > 90% |  |  | 
Cn1cc2c(n1)C(C)(C)[C@@H]1CC[C@]3(C)[C@H](CC=C4[C@@H]5CC(C)(C)CC[C@]5(C(=O)O)CC[C@]43C)[C@@]1(C)C2 | > 90% | 80% | 8 µg/mL | INH (Pseudomonas aeruginosa [4]): 16 µg/mL; INH (Escherichia coli [5]): >16 µg/mL; INH (Burkholderia cepacia): 1 µg/mL; INH (Salmonella enterica): >16 µg/mL
C=C(C)[C@@H]1CC[C@]2(C)CC[C@]3(C)[C@H](CC[C@@H]4[C@@]5(C)CC[C@H](O)C(C)(C)[C@@H]5CC[C@]43C)[C@@H]12 [LUPEOL] | < 20% |  |  | 
Cn1ccnc1[C@@H]1C[C@]2(C)[C@H]3CC=C4[C@@H]5CC(C)(C)CC[C@]5(C(=O)O)CC[C@@]4(C)[C@]3(C)CC[C@H]2C(C)(C)[C@H]1O | < 20% | 80% | >=32 ug ml-1 | 

Compound | inhibition at 16 µg/mL (Pseudomonas aeruginosa [1]) | inhibition at 16 µg/mL (Escherichia coli [2]) | MBIC50 (Escherichia coli [3]) | further results
CC1(C)CC[C@]2(C(=O)O)CC[C@]3(C)C(=CC[C@@H]4[C@@]5(C)C[C@@H](C6=NCCCN6)[C@H](O)C(C)(C)[C@@H]5CC[C@]43C)[C@@H]2C1 | < 20% | 60% | 4 µg/mL | 
CC1(C)CC[C@]2(C(=O)O)CC[C@]3(C)C(=CC[C@@H]4[C@@]5(C)Cc6c(O)nc(N)nc6C(C)(C)[C@@H]5CC[C@]43C)[C@@H]2C1 | 90% | > 90% | >=32 ug ml-1 | 
C[C@H]1[C@H](C)CC[C@]2(C(=O)O)CC[C@]3(C)C(=CC[C@@H]4[C@@]5(C)C[C@@H](O)[C@H](O)[C@@](C)(CO)[C@@H]5[C@H](O)C[C@]43C)[C@H]12 [MADECASSIC ACID] | 90% |  |  | 
CC(=O)N(C(C)=O)c1ncc2c(n1)C(C)(C)[C@@H]1CC[C@]3(C)[C@H](CC=C4[C@@H]5CC(C)(C)CC[C@]5(C(=O)O)CC[C@]43C)[C@@]1(C)C2 | 90% | 70% | 8 µg/mL | 
COC(=O)[C@]12CCC(C)(C)C[C@H]1C1=CC[C@@H]3[C@@]4(C)CC[C@H](O)C(C)(C)[C@@H]4CC[C@@]3(C)[C@]1(C)CC2 [METHYL OLEANOLATE] | 30% |  |  | 
CC1(C)CC[C@]2(C(=O)O)CC[C@]3(C)C(=CC[C@@H]4[C@@]5(C)C[C@@H](C6=NCCN6)[C@H](O)C(C)(C)[C@@H]5CC[C@]43C)[C@@H]2C1 | < 20% | > 90% | >=32 ug ml-1 | 
CN(C)CCNC(=O)[C@@H]1C[C@]2(C)[C@H]3CC=C4[C@@H]5CC(C)(C)CC[C@]5(C(=O)O)CC[C@@]4(C)[C@]3(C)CC[C@H]2C(C)(C)[C@H]1O | < 20% | 30% | 4 µg/mL | 
CC1(C)CC[C@]2(C(=O)O)CC[C@]3(C)C(=CC[C@@H]4[C@@]5(C)C[C@@H](C6=NCCO6)[C@H](O)C(C)(C)[C@@H]5CC[C@]43C)[C@@H]2C1 | < 20% | < 20% | 8 µg/mL | 
C[C@H]1[C@H](C)CC[C@]2(CO)CC[C@]3(C)C(=CC[C@@H]4[C@@]5(C)CC[C@H](O)C(C)(C)[C@@H]5CC[C@]43C)[C@H]12 [UVAOL] | < 20% |  |  | 
CCN(C[C@@H]1C[C@]2(C)[C@H]3CC=C4[C@@H]5CC(C)(C)CC[C@]5(C(=O)O)CC[C@@]4(C)[C@]3(C)CC[C@H]2C(C)(C)[C@H]1O)C(C)=O | < 20% | 30% | 4 µg/mL | 
CN1CCN=C1[C@@H]1C[C@]2(C)[C@H]3CC=C4[C@@H]5CC(C)(C)CC[C@]5(C(=O)O)CC[C@@]4(C)[C@]3(C)CC[C@H]2C(C)(C)[C@H]1O | > 20% | < 20% | >=32 ug ml-1 | 
CC(C)CN(C)C[C@@H]1C[C@]2(C)[C@H]3CC=C4[C@@H]5CC(C)(C)CC[C@]5(C(=O)O)CC[C@@]4(C)[C@]3(C)CC[C@H]2C(C)(C)[C@H]1O | < 20% | 90% | >=32 ug ml-1 | 
CN(C)C[C@@H]1C[C@]2(C)[C@H]3CC=C4[C@@H]5CC(C)(C)CC[C@]5(C(=O)O)CC[C@@]4(C)[C@]3(C)CC[C@H]2C(C)(C)[C@H]1O | < 20% | 70% | >=32 ug ml-1 | 
CC1(C)CC[C@]2(C(=O)O)CC[C@]3(C)C(=CC[C@@H]4[C@@]5(C)Cc6cn[nH]c6C(C)(C)[C@@H]5CC[C@]43C)[C@@H]2C1 | > 90% | > 90% | 4 µg/mL | INH (Pseudomonas aeruginosa [4]): 2 µg/mL; INH (Escherichia coli [5]): >16 µg/mL; INH (Burkholderia cepacia): 0.5 µg/mL; INH (Salmonella enterica): 16 µg/mL
CN(C)C(=O)[C@@H]1C[C@]2(C)[C@H]3CC=C4[C@@H]5CC(C)(C)CC[C@]5(C(=O)O)CC[C@@]4(C)[C@]3(C)CC[C@H]2C(C)(C)[C@H]1O | < 20% | < 20% | 4 µg/mL | 
COLISTIN |  |  |  | inhibition (Pseudomonas aeruginosa [6]): inactive
C[C@H]1[C@H](C)CC[C@]2(C(=O)O)CC[C@]3(C)C(=CC[C@@H]4[C@@]5(C)[C@H](O)[C@@H](O)[C@@H](O)[C@](C)(CO)[C@@H]5CC[C@]43C)[C@H]12 | 80% |  |  | 
CCCN(C)C(=O)[C@@H]1C[C@]2(C)[C@H]3CC=C4[C@@H]5CC(C)(C)CC[C@]5(C(=O)O)CC[C@@]4(C)[C@]3(C)CC[C@H]2C(C)(C)[C@H]1O | < 20% | 50% | 4 µg/mL | 
